Laboratory results reported in ChEMBL document CHEMBL1201862, “PubChem BioAssay data set” (2004).
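Cells were grown in 96-well plates and exposed to each compound for 48 hours at five concentrations; endpoints were interpolated linearly between bracketing concentrations, or set to the highest concentration if not reached. At the GI50, growth is halved.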 Active and inactive are the calls of the source. Rule as the data show it: active = GI50 up to about 1.1 µM and inactive = higher.

Assays:
Test in all cases: NCI tumour cell line growth inhibition, 48 h
HL-60 = test system: HL-60
SF-539 = test system: SF-539
HOP-92 = test system: HOP-92
DMS-273 = test system: DMS-273
TK-10 = test system: TK-10
SK-MEL-28 = test system: SK-MEL-28
UACC-62 = test system: UACC-62
CAKI-1 = test system: CAKI-1
KM12 = test system: KM12
SW-620 = test system: SW-620
XF498 = test system: XF498
SNB-19 = test system: SNB-19
M14 = test system: M14
LOX IMVI = test system: LOX IMVI
K562 = test system: K562
Malme-3M = test system: Malme-3M
IGROV-1 = test system: IGROV-1
A498 = test system: A498
LXFL 529 = test system: LXFL 529
OVCAR-8 = test system: OVCAR-8
CCRF-CEM = test system: CCRF-CEM
SNB-78 = test system: SNB-78
SN12C = test system: SN12C
OVCAR-4 = test system: OVCAR-4
NCI-H226 = test system: NCI-H226
RPMI-8226 = test system: RPMI-8226
DLD-1 = test system: DLD-1
KM-20L2 = test system: KM-20L2
U-251 = test system: U-251
OVCAR-5 = test system: OVCAR-5
HT-29 = test system: HT-29
EKVX = test system: EKVX
M19-MEL = test system: M19-MEL
SK-MEL-5 = test system: SK-MEL-5
HCC 2998 = test system: HCC 2998
NCI-H23 = test system: NCI-H23
786-0 = test system: 786-0
DMS-114 = test system: DMS-114
COLO 205 = test system: COLO 205
ACHN = test system: ACHN
OVCAR-3 = test system: OVCAR-3
NCI-H460 = test system: NCI-H460
UACC-257 = test system: UACC-257
A549 = test system: A549
SF-295 = test system: SF-295
HCT-116 = test system: HCT-116
RXF 393 = test system: RXF 393
HOP-18 = test system: HOP-18
SNB-75 = test system: SNB-75
RXF 631 = test system: RXF 631
SF-268 = test system: SF-268
HOP-62 = test system: HOP-62
MOLT-4 = test system: MOLT-4
HCT-15 = test system: HCT-15
SK-OV-3 = test system: SK-OV-3
NCI-H522 = test system: NCI-H522
SK-MEL-2 = test system: SK-MEL-2
UO-31 = test system: UO-31

SMILES: CCOc1ccc(OCC)c([P+](c2ccccc2)(c2ccccc2)c2ccccc2)c1
- GI50 (HL-60): 0.114 µM (active)
- GI50 (SF-539): 0.685 µM (active)
- GI50 (HOP-92): 0.182 µM (active)
- GI50 (DMS-273): 0.236 µM (active)
- GI50 (TK-10): 0.495 µM (active)
- GI50 (SK-MEL-28): 0.818 µM (active)
- GI50 (UACC-62): 0.792 µM (active)
- GI50 (CAKI-1): 1.29 µM (inactive)
- GI50 (KM12): 0.178 µM (active)
- GI50 (SW-620): 0.44 µM (active)
- GI50 (XF498): 0.0841 µM (active)
- GI50 (SNB-19): 0.378 µM (active)
- GI50 (M14): 0.71 µM (active)
- GI50 (LOX IMVI): 0.35 µM (active)
- GI50 (K562): 0.213 µM (active)
- GI50 (Malme-3M): 1.28 µM (inactive)
- GI50 (IGROV-1): 0.356 µM (active)
- GI50 (A498): 0.785 µM (active)
- GI50 (LXFL 529): 0.198 µM (active)
- GI50 (OVCAR-8): 0.358 µM (active)
- GI50 (CCRF-CEM): 0.322 µM (active)
- GI50 (SNB-78): 0.895 µM (active)
- GI50 (SN12C): 0.294 µM (active)
- GI50 (OVCAR-4): 1.19 µM (inactive)
- GI50 (NCI-H226): 0.406 µM (active)
- GI50 (RPMI-8226): 0.286 µM (active)
- GI50 (DLD-1): 0.548 µM (active)
- GI50 (KM-20L2): 0.333 µM (active)
- GI50 (U-251): 0.204 µM (active)
- GI50 (OVCAR-5): 0.407 µM (active)
- GI50 (HT-29): 0.315 µM (active)
- GI50 (EKVX): 1.1 µM (active)
- GI50 (M19-MEL): 0.4 µM (active)
- GI50 (SK-MEL-5): 0.267 µM (active)
- GI50 (HCC 2998): 0.305 µM (active)
- GI50 (NCI-H23): 0.254 µM (active)
- GI50 (786-0): 0.879 µM (active)
- GI50 (DMS-114): 0.245 µM (active)
- GI50 (COLO 205): 0.299 µM (active)
- GI50 (ACHN): 1.65 µM (inactive)
- GI50 (OVCAR-3): 0.162 µM (active)
- GI50 (NCI-H460): 0.383 µM (active)
- GI50 (UACC-257): 0.215 µM (active)
- GI50 (A549): 0.443 µM (active)
- GI50 (SF-295): 0.33 µM (active)
- GI50 (HCT-116): 0.27 µM (active)
- GI50 (RXF 393): 0.968 µM (active)
- GI50 (HOP-18): 0.721 µM (active)
- GI50 (SNB-75): 1.09 µM (active)
- GI50 (RXF 631): 2.4 µM (inactive)
- GI50 (SF-268): 0.617 µM (active)
- GI50 (HOP-62): 1.07 µM (active)

SMILES: COc1cccc(-n2c3nc(=O)n(C)c(=O)c-3nc3ccccc32)c1
- GI50 (HL-60): 6.01 µM (inactive)
- GI50 (SF-539): 12.4 µM (inactive)
- GI50 (HOP-92): 26 µM (inactive)
- GI50 (DMS-273): 6.95 µM (inactive)
- GI50 (TK-10): 45.6 µM (inactive)
- GI50 (SK-MEL-28): 22.1 µM (inactive)
- GI50 (UACC-62): 4.06 µM (inactive)
- GI50 (CAKI-1): 16.2 µM (inactive)
- GI50 (KM12): 27.1 µM (inactive)
- GI50 (SW-620): 5.09 µM (inactive)
- GI50 (XF498): 16.3 µM (inactive)
- GI50 (SNB-19): 22 µM (inactive)
- GI50 (MOLT-4): 16.3 µM (inactive)
- GI50 (M14): 11.7 µM (inactive)
- GI50 (K562): 24.2 µM (inactive)
- GI50 (Malme-3M): 14.3 µM (inactive)
- GI50 (IGROV-1): 18.7 µM (inactive)
- GI50 (A498): 34.5 µM (inactive)
- GI50 (LXFL 529): 21.6 µM (inactive)
- GI50 (OVCAR-8): 14.6 µM (inactive)
- GI50 (CCRF-CEM): 19 µM (inactive)
- GI50 (SNB-78): 29.1 µM (inactive)
- GI50 (HCT-15): 13.4 µM
- GI50 (SN12C): 13.7 µM (inactive)
- GI50 (OVCAR-4): 12.3 µM (inactive)
- GI50 (NCI-H226): 17.7 µM (inactive)
- GI50 (RPMI-8226): 12.5 µM (inactive)
- GI50 (DLD-1): 25.2 µM (inactive)
- GI50 (KM-20L2): 4.83 µM (inactive)
- GI50 (U-251): 14.4 µM (inactive)
- GI50 (SK-OV-3): > 100 µM (inactive)
- GI50 (OVCAR-5): 19.2 µM (inactive)
- GI50 (HT-29): 4.55 µM (inactive)
- GI50 (EKVX): 29.8 µM (inactive)
- GI50 (M19-MEL): 2.43 µM (inactive)
- GI50 (SK-MEL-5): 3.24 µM (inactive)
- GI50 (NCI-H522): 29.3 µM (inactive)
- GI50 (HCC 2998): 3.88 µM (inactive)
- GI50 (NCI-H23): 15.7 µM (inactive)
- GI50 (786-0): 24.3 µM (inactive)
- GI50 (DMS-114): 5.11 µM (inactive)
- GI50 (COLO 205): 3.5 µM (inactive)
- GI50 (ACHN): 3.18 µM (inactive)
- GI50 (OVCAR-3): 2.69 µM (inactive)
- GI50 (NCI-H460): 5.46 µM (inactive)
- GI50 (SK-MEL-2): 19.6 µM (inactive)
- GI50 (UACC-257): 14.9 µM (inactive)
- GI50 (A549): 12.6 µM (inactive)
- GI50 (UO-31): 49.8 µM (inactive)
- GI50 (SF-295): 13.2 µM (inactive)
- GI50 (HCT-116): 23.1 µM (inactive)
- GI50 (HOP-18): 42.9 µM (inactive)
- GI50 (SNB-75): 19.6 µM (inactive)
- GI50 (RXF 631): 19.1 µM (inactive)
- GI50 (SF-268): 16.7 µM (inactive)
- GI50 (HOP-62): 37.9 µM (inactive)
